# Results: patent publication US8029831B2, “Formulations containing thymoquinone for urinary health” (Bionexus, Ltd., priority 2008, dated 2011)
# Read-outs that look alike come from different tables or passages of the source.
# Legend:
# [1] = system: NO production in LPS-stimulated macrophages; details: single stimulating agent, El-Mahmoudy 2002; cited from earlier work
# [2] = system: iNOS biosynthesis of NO in C2C12 myocytes; assay: Inhibition of LTI (LPS/TNFα/IFγ)-stimulated iNOS biosynthesis of NO in C2C12 myocytes; format: cell-based, murine; details: Mus musculus
# Text: The Model—The C2C12 murine myocyte model was used in this Example. This model was selected to serve as the surrogate for muscle cells of the bladder that are exposed to the inflammatory stimuli of the invading bacteria, modeled by lipopolysaccharide (LPS), as well as the counter-inflammatory responses of the bladder infiltrating macrophage, modeled by interferon gamma (IFγ) and tumor necrosis factor alpha (TNFα). […] A significant increase in baseline NO production in cats with feline interstitial cystitis compared with that in healthy cats has been found in smooth muscle and mucosal strips.
# (§1) Cell culture and treatment—Mouse C2C12 myoblasts (American Type Culture Collection, Manassas, Va.) were maintained in Dulbecco's modified Eagle's medium (DMEM) supplemented with 10% fetal calf serum (FCS), 50 units/ml penicillin and 50 μg/ml streptomycin. As cells reached confluence, the medium was switched to the differentiation medium containing DMEM and 2% horse serum. Medium was changed every other day. After 4 additional days, the differentiated C2C12 cells had fused into myotubes, which were then treated in serum-free DMEM with either vehicle alone (0.1% DMSO), or 50, 10, 5, or 1 μg thymoquinone/mL for 1 hour and then stimulated with a cytokine mixture containing 1 μg LPS/mL, 50 ng TNFα/mL and 100 U IFγ/mL (LTI) for 20 hours. At the end of the treatment period, media were sampled for determination of NO.
# Nitric oxide determination—NBD methylhydrazine (NBDM, N-methyl-4-hydrazino-7-nitrobenzofurazan) was used to detect N-methyl-4-amino-7-nitrobenzofuazan, the fluorescent product of the NBDM reagent with nitrite (Buldt A, Karst U. Determination of nitrite in waters by microplate fluorescence spectroscopy and HPLC with fluorescence detection. Anal Chem. Aug. 1, 1999; 71(15):3003-3007). In a separate, black-walled, 96-well, microtiter plate, a 7 μL aliquot of a 4.8×10^−4 mol NBDM/L solution was added to 200 μL of the supernatant media followed by the addition of 15 μL of concentrated phosphoric acid. After a reaction time of 30 minutes at ambient temperature, the fluorescence was read with 485 nm excitation filter and a 530 nm emission filter in a Packard Fluorocount spectrofluorometer (Model#BF10000, Meridan, Conn.). Fluoresence was linear in the range of 3.59×10^−7 to 1.44×10^−5 mol nitrite/L. The standard deviation was 3.5 percent for 1.44×10^−6 mol nitrite/L. Experiments were performed a minimum of three times with eight replicates per dose, capturing the median inhibitory concentration (IC50) when possible.
# Calculations—The median inhibitory concentrations (IC50) and 95% confidence interval were calculated using CalcuSyn (BIOSOFT, Ferguson, Mo.). This statistical package performs multiple drug dose-effect calculations using the Median Effect methods described by Chou and Talalay [Chou T C, Talalay P. Quantitative analysis of dose-effect relationships: the combined effects of multiple drugs or enzyme inhibitors. Adv Enzyme Regul. 1984; 22:27-55].
# The Model—The C2C12 murine myocyte model as described in Example 1 was used.
# as §1, with “units/mL” for “units/ml”, “μg/mL of the thymoquinone test formulation” for “μg thymoquinone/mL”, “IFγ/mL” for “IFγ/mL (LTI)”, “NO. […]” for “NO.”
# [3] = 1500 to 3000 mg/day in humans, 19 subjects, reduced from 7.5; Jarrar 1996; cited from earlier work
# [4] = pure compounds from Sigma, LTI-stimulated C2C12 myocytes as in Example 1, read-out: median inhibitory concentration
smiles,measurement,setting,value
CC1=CC(=O)C(C(C)C)=CC1=O [thymoquinone],IC50 inhibiting NO production,[1],1.4 to 2.8 µg/mL
same,IC50,"[2]; C2C12 myotubes, 1 h pre-treatment, then LPS/TNFα/IFγ mixture for 20 h, 95% confidence interval 1.1 to 2.3 μg/mL, read-out: median inhibitory concentration of iNOS-mediated NO production",1.6 µg/mL
same,IC50,"[2]; LTI-stimulated C2C12 myocytes, adjusted for thymoquinone content, brackets = 95% confidence interval, read-out: Adjusted iNOS (IC50)",1.6 µg/mL
Cc1ccc(C(C)C)cc1 [cymene],IC50,[2]; [4],≥ 10 µg/mL
Cc1ccc(C(C)C)cc1O [carvacrol],IC50,"[2]; C2C12, read-out: median inhibitory concentration",≥ 10 µg/mL
CC=Cc1ccc(OC)cc1 [anethole],IC50,[2]; [4],≥ 10 µg/mL
Cc1ccc(C(C)C)c(O)c1 [thymol],IC50,[2]; [4],≥ 10 µg/mL
CSCC[C@H](N)C(=O)O [Methionine],mean pH values of the urine after treatment,[3],5.5
